# Data from US9975885B2, “Broad-spectrum non-covalent coronavirus protease inhibitors” (priority 2016, dated 2018).
# How the values were obtained:
# [1] = system: Ten CoV 3CL^pro's (FIPV-, PEDV-, NL63-, HKU1-, OC43-, SARS-, HKU4-, HKU5-, HKU9-, IBV-3CL^pro); type: biochemical, coronaviruses (α-, β-, γ-CoV)
# HKU5-3CL^pro = HKU5-3CL^pro (Bat coronavirus HKU5 (BtCoV) (BtCoV/HKU5/2004), UniProt P0C6W4); type: biochemical
# HKU1-3CL^pro = HKU1-3CL^pro (Human coronavirus HKU1 (isolate N1) (HCoV-HKU1), UniProt P0C6X2); assay: biochemical
# Chain of HKU1-3CL^pro (P0C6X2 3335-3637 limits assumed): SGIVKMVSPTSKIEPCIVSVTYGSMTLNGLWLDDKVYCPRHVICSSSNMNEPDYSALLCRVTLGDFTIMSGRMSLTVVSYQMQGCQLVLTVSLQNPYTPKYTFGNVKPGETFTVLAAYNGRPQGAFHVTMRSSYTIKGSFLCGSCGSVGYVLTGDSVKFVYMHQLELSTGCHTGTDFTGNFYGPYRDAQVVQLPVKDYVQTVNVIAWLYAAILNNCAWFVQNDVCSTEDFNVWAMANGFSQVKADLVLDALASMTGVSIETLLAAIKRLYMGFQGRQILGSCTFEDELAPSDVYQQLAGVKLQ
# SARS-3CL^pro = SARS-3CL^pro (Severe acute respiratory syndrome coronavirus (SARS-CoV), UniProt P0C6X7); type: biochemical
# HKU4-3CL^pro = HKU4-3CL^pro (Bat coronavirus HKU4 (BtCoV) (BtCoV/HKU4/2004), UniProt P0C6W3); type: biochemical
# Chain of HKU4-3CL^pro (P0C6W3 3292-3597 limits assumed): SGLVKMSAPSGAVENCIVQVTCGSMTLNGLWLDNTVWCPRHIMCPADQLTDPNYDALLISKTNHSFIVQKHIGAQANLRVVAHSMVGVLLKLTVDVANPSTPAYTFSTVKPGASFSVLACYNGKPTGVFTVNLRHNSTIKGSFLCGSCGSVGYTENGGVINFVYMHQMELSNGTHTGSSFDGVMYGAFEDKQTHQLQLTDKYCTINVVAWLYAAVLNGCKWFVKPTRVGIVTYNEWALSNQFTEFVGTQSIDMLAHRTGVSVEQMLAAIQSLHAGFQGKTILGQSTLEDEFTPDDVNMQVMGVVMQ
# Chain of HKU5-3CL^pro (P0C6W4 3339-3644 limits assumed): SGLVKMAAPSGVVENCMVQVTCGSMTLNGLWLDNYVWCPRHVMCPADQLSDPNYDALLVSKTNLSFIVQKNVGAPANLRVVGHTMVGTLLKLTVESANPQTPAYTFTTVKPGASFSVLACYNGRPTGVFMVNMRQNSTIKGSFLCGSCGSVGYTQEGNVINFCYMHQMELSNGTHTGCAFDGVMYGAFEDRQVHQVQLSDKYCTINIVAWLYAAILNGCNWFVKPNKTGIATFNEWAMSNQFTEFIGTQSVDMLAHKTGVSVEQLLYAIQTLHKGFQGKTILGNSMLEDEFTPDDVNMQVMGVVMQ
Compound,Gini Coefficient [1],inhibition of any 3CL^pro [1] [%],further results
"CC(C)(C)NC(=O)C(c1ccsc1)N(C(=O)CCc1nc2ccccc2[nH]1)c1ccc(NC(=O)C2CC2)cc1 (stereo not shown) [Compound 62, N-(4-(3-(1H-benzo[d]imidazol-2-yl)-N-(2-(tert-butylamino)-2-oxo-1-(thiophen-3-yl)ethyl)propanamido)phenyl)cyclopropanecarboxamide]",0.46,≤ 50,
"CC(C)(C)NC(=O)C(c1ccsc1)N(C(=O)C1CCN(C(=O)OC(C)(C)C)CC1)c1ccc(NC(=O)C2CC2)cc1 (stereo not shown) [Compound 60, tert-butyl 4-((2-(tert-butylamino)-2-oxo-1-(thiophen-3-yl)ethyl)(4-(cyclopropanecarboxamido)phenyl)carbamoyl)piperidine-1-carboxylate]",0.60,≤ 50,
"CC(C)C(=O)Nc1ccc(N(C(=O)CCc2nc3ccccc3[nH]2)C(C(=O)NCc2ccccc2)c2cccc(F)c2)cc1 (stereo not shown) [Compound 58, 3-(1H-benzo[d]imidazol-2-yl)-N-(2-(benzylamino)-1-(3-fluorophenyl)-2-oxoethyl)-N-(4-isobutyramidophenyl)propanamide]",0.40,,
"Cc1nccn1CCC(=O)N(c1ccc(NC(=O)C2CC2)cc1)C(C(=O)NC(C)(C)C)c1ccsc1 (stereo not shown) [Compound 63, N-(4-(N-(2-(tert-butylamino)-2-oxo-1-(thiophen-3-yl)ethyl)-3-(2-methyl-1H-imidazol-1-yl)propanamido)phenyl)cyclopropanecarboxamide]",0.44,≤ 50,
"Cc1cccc2c(CC(=O)N(c3ccc(NC(=O)C(C)C)cc3)C(C(=O)NCc3ccccc3)c3cccc(F)c3)c[nH]c12 (stereo not shown) [Compound 57, N-(4-(N-(2-(benzylamino)-1-(3-fluorophenyl)-2-oxoethyl)-2-(7-methyl-1H-indol-3-yl)acetamido)phenyl)isobutyramide]",0.38,≤ 50,
"CC(C)C(=O)Nc1ccc(N(C(=O)Cn2nnc3ccccc32)C(C(=O)NCc2ccccc2)c2cccc(Cl)c2)cc1 (stereo not shown) [Compound 11, N-(4-(2-(1H-benzo[d][1,2,3]triazol-1-yl)-N-(2-(benzylamino)-1-(3-chlorophenyl)-2-oxoethyl)acetamido)phenyl)isobutyramide]",,≤ 50,
"Cc1cc(N(C(=O)c2c[nH]cn2)C(C(=O)NC(C)(C)C)c2cccnc2)ccc1Cl (stereo not shown) [Compound 70, N-(2-(tert-butylamino)-2-oxo-1-(pyridin-3-yl)ethyl)-N-(4-chloro-3-methylphenyl)-1H-imidazole-4-carboxamide]",0.33,,
"CC(C)C(=O)Nc1ccc(N(C(=O)Cn2nnc3ccccc32)C(C(=O)NCc2ccccc2)c2ccc(N(C)C)cc2)cc1 (stereo not shown) [Compound 52, N-(4-(2-(1H-benzo[d][1,2,3]triazol-1-yl)-N-(2-(benzylamino)-1-(4-(dimethylamino)phenyl)-2-oxoethyl)acetamido)phenyl)isobutyramide]",0.42,≤ 50,
"CC(C)(C)NC(=O)C(c1ccsc1)N(C(=O)Cc1coc2ccccc12)c1ccc(NC(=O)C2CC2)cc1 (stereo not shown) [Compound 25, N-(4-(2-(benzofuran-3-yl)-N-(2-(tert-butylamino)-2-oxo-1-(thiophen-3-yl)ethyl)acetamido)phenyl)cyclopropanecarboxamide]",0.39,≤ 50,
"CC(C)C(=O)Nc1ccc(N(C(=O)Cn2nnc3ccccc32)C(C(=O)NCc2ccccc2)c2ccncc2)cc1 (stereo not shown) [Compound 16, N-(4-(2-(1H-benzo[d][1,2,3]triazol-1-yl)-N-(2-(benzylamino)-2-oxo-1-(pyridin-4-yl)ethyl)acetamido)phenyl)isobutyramide]",0.52,≤ 50,
CC(C)(C)NC(=O)C(c1cccnc1)N(C(=O)c1c[nH]cn1)c1cccc(C(C)(C)C)c1 (stereo not shown) [Compound 71],0.30,,
"COc1ccc(C(C(=O)NCc2ccccc2)N(C(=O)Cn2nnc3ccccc32)c2ccc(NC(=O)C(C)C)cc2)cc1 (stereo not shown) [Compound 13, N-(4-(2-(1H-benzo[d][1,2,3]triazol-1-yl)-N-(2-(benzylamino)-1-(4-methoxyphenyl)-2-oxoethyl)acetamido)phenyl)isobutyramide]",0.43,,Score (performance metric score) [1]: 6.4; IC50 (HKU5-3CL^pro): 1.3 ± 0.2 µM; IC50 (HKU1-3CL^pro): 2.5 ± 0.4 µM
"CC(C)C(=O)Nc1ccc(N(C(=O)Cc2coc3ccccc23)C(C(=O)NCc2ccccc2)c2cccc(F)c2)cc1 (stereo not shown) [Compound 20, N-(4-(2-(benzofuran-3-yl)-N-(2-(benzylamino)-1-(3-fluorophenyl)-2-oxoethyl)acetamido)phenyl)isobutyramide]",0.39,≤ 50,
"CC(C)(C)NC(=O)C(c1ccsc1)N(C(=O)Cc1csc2ccccc12)c1ccc(NC(=O)C2CC2)cc1 (stereo not shown) [Compound 24, N-(4-(2-(benzo[b]thiophen-3-yl)-N-(2-(tert-butylamino)-2-oxo-1-(thiophen-3-yl)ethyl)acetamido)phenyl)cyclopropanecarboxamide]",0.40,≤ 50,
"CC(C)C(=O)Nc1ccc(N(C(=O)Cn2nnc3ccccc32)C(C(=O)NCc2ccccc2)c2ccc(OCCCN(C)C)cc2)cc1 (stereo not shown) [Compound 54, N-(4-(2-(1H-benzo[d][1,2,3]triazol-1-yl)-N-(2-(benzylamino)-1-(4-(3-(dimethylamino)propoxy)phenyl)-2-oxoethyl)acetamido)phenyl)isobutyramide]",0.59,,Score (performance metric score) [1]: 19.8; IC50 (SARS-3CL^pro): 27.3 ± 4.6 µM; IC50 (HKU1-3CL^pro): 20 ± 2.9 µM
"CC(C)C(=O)Nc1ccc(N(C(=O)Cn2nnc3ccccc32)C(C(=O)NCc2ccccc2)c2ccc(Cl)c(F)c2)cc1 (stereo not shown) [Compound 55, N-(4-(2-(1H-benzo[d][1,2,3]triazol-1-yl)-N-(2-(benzylamino)-1-(4-chloro-3-fluorophenyl)-2-oxoethyl)acetamido)phenyl)isobutyramide]",0.50,,Score (performance metric score) [1]: 9.8; IC50 (SARS-3CL^pro): 0.8 ± 0.1 µM
"CC(C)C(=O)Nc1ccc(N(C(=O)C2CCN(C(=O)OC(C)(C)C)CC2)C(C(=O)NCc2ccccc2)c2cccc(F)c2)cc1 (stereo not shown) [Compound 56, tert-butyl 4-((2-(benzylamino)-1-(3-fluorophenyl)-2-oxoethyl)(4-isobutyramidophenyl)carbamoyl) piperidine-1-carboxylate]",0.34,,
"CC(C)(C)NC(=O)C(c1ccsc1)N(C(=O)Cc1c[nH]c2ccccc12)c1ccc(NC(=O)C2CC2)cc1 (stereo not shown) [Compound 26, N-(4-(N-(2-(tert-butylamino)-2-oxo-1-(thiophen-3-yl)ethyl)-2-(1H-indol-3-yl)acetamido)phenyl)cyclopropanecarboxamide]",0.46,≤ 50,
"Cc1cccc2c(CC(=O)N(c3ccc(NC(=O)C4CC4)cc3)C(C(=O)NC(C)(C)C)c3ccsc3)c[nH]c12 (stereo not shown) [Compound 61, N-(4-(N-(2-(tert-butylamino)-2-oxo-1-(thiophen-3-yl)ethyl)-2-(7-methyl-1H-indol-3-yl)acetamido)phenyl)cyclopropanecarboxamide]",0.43,≤ 50,
"CC(C)C(=O)Nc1ccc(N(C(=O)Cn2nnc3ccccc32)C(C(=O)NCc2ccccc2)c2cccnc2)cc1 (stereo not shown) [Compound 15, N-(4-(2-(1H-benzo[d][1,2,3]triazol-1-yl)-N-(2-(benzylamino)-2-oxo-1-(pyridin-3-yl)ethyl)acetamido)phenyl)isobutyramide]",0.48,,Score (performance metric score) [1]: 9.7; IC50 (SARS-3CL^pro): 10.9 ± 1.9 µM; IC50 (HKU5-3CL^pro): 9.6 ± 1.2 µM; IC50 (HKU4-3CL^pro): 4 ± 0.4 µM
"COc1cc(N(C(=O)c2c[nH]cn2)C(C(=O)NC(C)(C)C)c2cccnc2)cc(OC)c1OC (stereo not shown) [Compound 69, N-(2-(tert-butylamino)-2-oxo-1-(pyridin-3-yl)ethyl)-N-(3,4,5-trimethoxyphenyl)-1H-imidazole-4-carboxamide]",0.45,,
"CC(C)C(=O)Nc1ccc(N(C(=O)Cn2nnc3ccccc32)C(C(=O)NCc2ccccc2)c2ccc(Cl)cc2)cc1 (stereo not shown) [Compound 12, N-(4-(2-(1H-benzo[d][1,2,3]triazol-1-yl)-N-(2-(benzylamino)-1-(4-chlorophenyl)-2-oxoethyl)acetamido)phenyl)isobutyramide]",0.37,,
"Cc1nccn1CCC(=O)N(c1ccc(NC(=O)C(C)C)cc1)C(C(=O)NCc1ccccc1)c1cccc(F)c1 (stereo not shown) [Compound 59, N-(2-(benzylamino)-1-(3-fluorophenyl)-2-oxoethyl)-N-(4-isobutyramidophenyl)-3-(2-methyl-1H-imidazol-1-yl)propanamide]",0.44,,
